Assay results from patent US20110003753A1, “COMPOSITIONS AND METHODS FOR DISRUPTING THE FUNCTION OF THE TRANSCRIPTIONAL REPRESSOR COMPONENT Sin3A-PAH2 DOMAIN TO INDUCE DIFFERENTIATION AND GROWTH INHIBITION IN BREAST CANCER” (SAMUEL WAXMAN CANCER RESEARCH FOUNDATION, priority 2009, published 2011).

Legend:
Sin3B and MAD = assay: Mammalian two-hybrid assay, GAL4 DBD-Sin3B and VP16AD-MAD in 293T cells; format: cell-based; settings: 15 μM peptide applied to the cell culture medium
Source text: FIG. 2: SID decoy peptide blocks interactions between Sin3 PAH2 and MAD and interferes with recruitment of members of the Sin3 co-repressor complex. A. GST pull-down of MAD by the Sin3A PAH2 domain is blocked by SID peptide. Sin3A PAH2 domain (amino acids 306-450) was expressed in E. coli as a GST fusion and used in a pull down assay for in vitro interaction with 35S-methionine labeled MAD (left panel) or MAD immunoprecipitated from MDA-MB-231 cell lysates (right panel). 25% of input is shown for in vitro translated MAD and 10% of input for immunoprecipitated MAD (input). Assays were performed using 15 μM Tat-SID or Tat-SID^SCR peptide unless otherwise indicated. […] 293T cells were transfected with GAL4^uas×5-Tk-Luc reporter together with mammalian two-hybrid vectors expressing a fusion of Sin3B with GAL4 DNA binding domain (GAL4^DBD) and fusions of MAD and HDAC1 (columns 5-12 and 14-21, respectively) with VP16 activation domain (VP16^AD), as well as SID expression vectors, as indicated. […]
24 hours prior to transfection, 293T cells were plated at 50-60% confluence on 48-well plates. […] 48 hours post-transfection luciferase activity was measured using the Dual Luciferase assay system (Promega) on a Mithras LB940 plate reader (Berthold Technologies). […]

[1] = tested on: MMTV-Myc mouse breast cancer cells; assay: Phenotypic (morphology) changes in culture; format: cell-based
Source text: FIG. 1: Expression of a decoy peptide corresponding to MAD Sin3 interaction domain (SID) induces markers of differentiation and contact inhibition in MDA-MB-231 breast cancer cells. A. Schematic of the SID peptides and expression constructs used in this study. Shown in the upper panel are the design and sequence of the Tat-SID peptide and Tat-SID^SCR scrambled control. The Tat-SID peptide corresponds to amino acids 5-24 of MAD. This sequence binds Sin3 PAH2 with high affinity and has been previously used to study SID-PAH2 interactions in vitro. Peptides contain a leader sequence (YGRKKRRQGGG, SEQ ID No. 5) corresponding to the human immunodeficiency virus type 1 Tat arginine-rich RNA-binding motif (ARM), which has been mutated (RRR>GGG) to improve nuclear entry. B. Morphological changes induced by SID in MDA-MB-231 and MMTV-Myc. […] D. Confocal IF analyses showing the re-expression of membrane-associated E-cadherin induced by the expression of SID in MDA-MB-231 cells (top row) and MMTV-Myc cells (bottom row) E. Re-expression of nuclear RARβ in MDA-MB-231 cells detected by immunofluorescence microscopy. […]

MDA-MB-231 cells = assay: Three-dimensional morphogenesis assay in Matrigel; format: cell-based, human; settings: 5 μM peptide, Matrigel 3D culture
Description: FIG. 3: A. Morphogenesis in 3D cultures in Matrigel. MDA-MB-231 and MMTV-Myc cells expressing SID or the double mutant were cultured in 3D-Matrigel for 14 days. […] B. Reversion of the invasive phenotype of the MDA-MB-231 cells in Matrigel 3D cultures. Upper panel indicates change in numbers of invasive versus non invasive colonies (as indicated in crosshatched and non-crosshatched bars, respectively) in the presence of different concentrations (as indicated) of cell penetrating SID or SID^SCR (scrambled control) peptide. The colonies were counted after 10 days of treatment with a medium containing fresh peptide changed every 24 hours. […] The reduction in invasive phenotype was quantified by counting 5 low magnification fields per well done in triplicates (upper panel). The p value was calculated using the unpaired Student t test.
3D cultures of MDA-MB-231 and MMTV-Myc cells stably transfected with pEGFP-SID, pEGFP-SID2Mut or the parent vector pEGFP-N3 were prepared as described by Debnath et al. (Debnath et al2003). Briefly, […] of growth factor depleted Matrigel (BD Biosciences) was applied on 8-well multichamber slides (BD Biosciences) and incubated at 37° C. for 30 minutes. Once the Matrigel solidified 5×10^3 cells were seeded on top of the gels in assay medium containing 2% Matrigel and 20 ng/ml […]. Growth medium was changed daily for 14 days. Once colony formation was evident, the SID or the scramble control peptide was added to the MDA-MB-231 parental cells in the medium starting at day 3. The morphology of the colonies was determined by confocal microscopy. Induction of apoptosis was determined by staining colonies with activated caspase-3 antibody (BD Transduction Labs) and cell polarization by staining with anti-GM130 antibody (BD Transduction Labs). Cell nuclei were visualized by DAPI (Sigma) staining. […]

Sequence: YGRKKRRQGGGVRMNIQMLLEAADYLERRER [SID peptide]
- increase in luciferase activity compared to GAL4 DBD-Sin3B and VP16AD-MAD co-expression (Sin3B and MAD): confirmed, albeit to a lesser degree
- phenotypic change of cell morphology [1]: cobblestone monolayers and well defined cell-cell contact accompanied by cell growth contact inhibition
- number and size of the colonies (MDA-MB-231 cells): reduced
- decrease in number of colonies with invasive phenotype (MDA-MB-231 cells; colonies counted after 10 days of treatment): ~80%
